Reference: patent publication US11407740B2 (priority 2018, dated 2022)
Values after ≈ are worked out from the molar mass of the structure shown.

These molecules were tested on E. coli (assay: Bacterial susceptibility testing, MIC by broth microdilution (CLSI)). Conditions: Escherichia coli, read-out: E. coli MIC, broth microdilution, 35° C., 18-24 h.
Protocol: Minimal inhibitory concentrations (MIC) were determined by the broth microdilution method in accordance with the Clinical and Laboratory Standards Institute (CLSI) guidelines. In brief, organism suspensions were adjusted to a 0.5 McFarland standard to yield a final inoculum between 3×10^3 and 7×10^5 colony-forming units (CFU)/mL. Drug dilutions and inocula were made in sterile, cation adjusted Mueller-Hinton Broth (Beckton Dickinson). An inoculum volume of 100 μL was added to wells containing 100 μL of broth with 2-fold serial dilutions of drug.

Compound | MIC [µg/mL]
O=c1[nH]cnc(CC(CO)c2ccc(C#Cc3ccc(CN[C@H]4CCOC4)cc3)cc2)c1O (mixture of isomers) [Compound 8] | < 1
O=c1[nH]cnc(CC(CO)c2ccc(C#Cc3ccc(CN[C@@H]4CCOC4)cc3)cc2)c1O (mixture of isomers) [Compound 11] | < 1
O=C(NCCF)C(Cc1nc[nH]c(=O)c1O)c1ccc(C#Cc2ccc(CN[C@H]3CCOC3)cc2)cc1 (mixture of isomers) [Compound 30] | 1 to 8
CC(CO)(Cc1nc[nH]c(=O)c1O)c1ccc(C#Cc2ccc(CN[C@H]3CCOC3)cc2)cc1 (mixture of isomers) [Compound 32] | < 1
O=c1[nH]cnc(CC(CO)c2ccc(C#Cc3ccc(CCN[C@H]4CCOC4)cc3)cc2)c1O (mixture of isomers) [Compound 43] | < 1
O=C(CO)N1CC[C@@H](NCc2ccc(C#Cc3ccc(C(CO)Cc4nc[nH]c(=O)c4O)cc3)cc2)C1 (mixture of isomers) [Compound 44] | < 1
O=c1[nH]cnc(CC(CO)c2ccc(C#Cc3ccc(CN[C@@H]4CCNC4)cc3)cc2)c1O (mixture of isomers) [Compound 62] | 1 to 8
COC1CN(Cc2ccc(C#Cc3ccc(C(CN[C@@H](C)CF)Cc4nc[nH]c(=O)c4O)cc3)cc2)C1 (mixture of isomers) [Compound 66] | < 1
C[C@@H](CF)NCC(Cc1nc[nH]c(=O)c1O)c1ccc(C#Cc2ccc(CN3CC4COCC4C3)cc2)cc1 (mixture of isomers) [Compound 84] | < 1
CO[C@@H]1CCN(Cc2ccc(C#Cc3ccc(C(CN[C@@H](C)CF)Cc4nc[nH]c(=O)c4O)cc3)cc2)C1 (mixture of isomers) [Compound 86] | < 1
CO[C@H]1CCN(Cc2ccc(C#Cc3ccc(C(CN[C@@H](C)CF)Cc4nc[nH]c(=O)c4O)cc3)cc2)C1 (mixture of isomers) [Compound 89] | < 1
C[C@@H](CF)NCC(Cc1nc[nH]c(=O)c1O)c1ccc(C#Cc2ccc(CN3CC[C@@H](C#N)C3)cc2)cc1 (mixture of isomers) [Compound 91] | < 1
C[C@@H](CF)NCC(Cc1nc[nH]c(=O)c1O)c1ccc(C#Cc2ccc(CN3CC[C@H](C#N)C3)cc2)cc1 (mixture of isomers) [Compound 92] | < 1
C[C@@H](CF)NCC(Cc1nc[nH]c(=O)c1O)c1ccc(C#Cc2ccc(CNC3COC3)cc2)cc1 (mixture of isomers) [Compound 94] | < 1
C[C@@H](CF)NCC(Cc1nc[nH]c(=O)c1O)c1ccc(C#Cc2ccc(CN3CC(CC#N)C3)cc2)cc1 (mixture of isomers) [Compound 95] | < 1
C[C@@H](CF)NCC(Cc1nc[nH]c(=O)c1O)c1ccc(C#Cc2ccc(CN[C@@H]3CCOC3)cc2)cc1 (mixture of isomers) [Compound 108] | < 1
C[C@@H](CF)NCC(Cc1nc[nH]c(=O)c1O)c1ccc(C#Cc2ccc(CN[C@H]3CCOC3)cc2)cc1 (mixture of isomers) [Compound 110] | < 1
N#C[C@H]1CCN(Cc2ccc(C#Cc3ccc(C(CNCC(F)F)Cc4nc[nH]c(=O)c4O)cc3)cc2)C1 (mixture of isomers) [Compound 123] | < 1
C[C@@H](CF)NCC(Cc1nc[nH]c(=O)c1O)c1ccc(C#Cc2ccc(CN3CC4(COC4)C3)cc2)cc1 (mixture of isomers) [Compound 124] | 1 to 8
CO[C@@H]1CCN(Cc2ccc(C#Cc3ccc(C(CNCC(C)Cl)Cc4nc[nH]c(=O)c4O)cc3)cc2)C1 (mixture of isomers) [Compound 125] | 1 to 8
C[C@@H](CF)NCC(Cc1nc[nH]c(=O)c1O)c1ccc(C#Cc2ccc(CN3CC(C4COC4)C3)cc2)cc1 (mixture of isomers) [Compound 126] | 1 to 8
C[C@@H](CF)NCC(Cc1nc[nH]c(=O)c1O)c1ccc(C#Cc2ccc(CN3CC4(CCOC4)C3)cc2)cc1 (mixture of isomers) [Compound 127] | 1 to 8
C[C@@H](CF)NCC(Cc1nc[nH]c(=O)c1O)c1ccc(C#Cc2ccc(CN3CC4(CCO4)C3)cc2)cc1 (mixture of isomers) [Compound 132] | < 1
COC1CN(Cc2ccc(C#Cc3ccc(C(C)(CN[C@@H](C)CF)Cc4nc[nH]c(=O)c4O)cc3)cc2)C1 (mixture of isomers) [Compound 143] | < 1
C[C@@H](CO)NCC(Cc1nc[nH]c(=O)c1O)c1ccc(C#Cc2ccc(CN[C@H]3CCOC3)cc2)cc1 (mixture of isomers) [Compound 144] | 1 to 8

Compound | MIC [µg/mL]
NC[C@@H]1CCCN1Cc1ccc(C#Cc2ccc(C(CO)Cc3nc[nH]c(=O)c3O)cc2)cc1 (mixture of isomers) [Compound 145] | 1 to 8
NC[C@H]1CCCN1Cc1ccc(C#Cc2ccc(C(CO)Cc3nc[nH]c(=O)c3O)cc2)cc1 (mixture of isomers) [Compound 148] | 1 to 8
N=[S@]1(=O)CC[C@@H](NCc2ccc(C#Cc3ccc(C(CO)Cc4nc[nH]c(=O)c4O)cc3)cc2)C1 (mixture of isomers) [Compound 150] | 1 to 8
N=[S@@]1(=O)CC[C@H](NCc2ccc(C#Cc3ccc(C(CO)Cc4nc[nH]c(=O)c4O)cc3)cc2)C1 (mixture of isomers) [Compound 151] | 1 to 8
O=C(CO)N(Cc1ccc(C#Cc2ccc(C(CO)Cc3nc[nH]c(=O)c3O)cc2)cc1)[C@@H]1CCNC1 (mixture of isomers) [Compound 154] | 8 to 32
O=c1[nH]cnc(CC(CO)c2ccc(C#Cc3ccc(CN[C@@H]4CCN(CCO)C4)cc3)cc2)c1O (mixture of isomers) [Compound 155] | 1 to 8
O=C(O)CN1CC[C@@H](NCc2ccc(C#Cc3ccc(C(CO)Cc4nc[nH]c(=O)c4O)cc3)cc2)C1 (mixture of isomers) [Compound 156] | > 32
O=C(CO)NC[C@@H]1CCCN1Cc1ccc(C#Cc2ccc(C(CO)Cc3nc[nH]c(=O)c3O)cc2)cc1 (mixture of isomers) [Compound 158] | 1 to 8
O=c1[nH]cnc(CC(CN[C@H]2CCOC2)c2ccc(C#Cc3ccc(CN4CCOCC4)cc3)cc2)c1O (mixture of isomers) [Compound 166] | < 1
C[C@@H](CO)NCC(Cc1nc[nH]c(=O)c1O)c1ccc(C#Cc2ccc(CN3CCOCC3)cc2)cc1 (mixture of isomers) [Compound 167] | < 1
NC(Cc1nc[nH]c(=O)c1O)c1ccc(C#Cc2ccc(CN[C@@H]3CCOC3)cc2)cc1 (mixture of isomers) [Compound 173] | < 1
O=c1[nH]cnc(CC(CO)c2ccc(/C=C/c3ccc(CN[C@H]4CCOC4)cc3)cc2)c1O (mixture of isomers) [Compound 198] | 8 to 32
CC(=O)N1CC[C@@H](NCc2ccc(C#Cc3ccc(C(CO)Cc4nc[nH]c(=O)c4O)cc3)cc2)C1 (mixture of isomers) [Compound 232] | < 1
O=C(N[C@@H]1CCN(Cc2ccc(C#Cc3ccc(C(CO)Cc4nc[nH]c(=O)c4O)cc3)cc2)C1)C1CC1 (mixture of isomers) [Compound 256] | < 1
O=C(CO)N[C@@H]1CCN(Cc2ccc(C#Cc3ccc(C(CO)Cc4nc[nH]c(=O)c4O)cc3)cc2)C1 (mixture of isomers) [Compound 257] | 1 to 8
CN(Cc1ccc(C#Cc2ccc(C(CO)Cc3nc[nH]c(=O)c3O)cc2)cc1)[C@@H]1CCNC1 (mixture of isomers) [Compound 260] | 1 to 8
CN1CC[C@@H](NCc2ccc(C#Cc3ccc(C(CO)Cc4nc[nH]c(=O)c4O)cc3)cc2)C1 (mixture of isomers) [Compound 261] | 1 to 8
NCC(=O)N1CC[C@@H](NCc2ccc(C#Cc3ccc(C(CO)Cc4nc[nH]c(=O)c4O)cc3)cc2)C1 (mixture of isomers) [Compound 262] | 8 to 32
CNC(Cc1nc[nH]c(=O)c1O)c1ccc(C#Cc2ccc(CN[C@@H]3CCOC3)cc2)cc1 (mixture of isomers) [Compound 265] | < 1
O=c1[nH]cnc(CC(O)c2ccc(C#Cc3ccc(CN[C@@H]4CCOC4)cc3)cc2)c1O (mixture of isomers) [Compound 271] | < 1
N[C@@H]1CCN(Cc2ccc(C#Cc3ccc(C(CO)Cc4nc[nH]c(=O)c4O)cc3)cc2)C1 (mixture of isomers) [Compound 292] | 1 to 8
C[C@@H](CF)NCC(Cc1nc[nH]c(=O)c1O)c1ccc(C#Cc2ccc(CCN3CCOCC3)cc2)cc1 (mixture of isomers) [Compound 294] | < 1
O=c1[nH]cnc(CC(CO)c2ccc(C#Cc3ccc(CN[C@H]4CCS(=O)(=O)C4)cc3)cc2)c1O (single isomer, unassigned) [Compound 39] | < 1
O=c1[nH]cnc(CC(CO)c2ccc(C#Cc3ccc(CN[C@@H]4CCS(=O)(=O)C4)cc3)cc2)c1O (single isomer, unassigned) [Compound 40] | 1 to 8 (≈ 2.03 to 16.2 µM)
COC1CN(Cc2ccc(C#Cc3ccc(C(CN[C@H](C)CF)Cc4nc[nH]c(=O)c4O)cc3)cc2)C1 (single isomer, unassigned) [Compound 69] | < 1

Same assay, conditions: broth microdilution, 35° C., 18-24 h

Compound | E. coli MIC
CO[C@@H]1CCN(Cc2ccc(C#Cc3ccc(C(CNCC(C)F)Cc4nc[nH]c(=O)c4O)cc3)cc2)C1 (mixture of isomers) [Compound 135] | B (B: >1 μg/mL to ≤8.0 μg/mL)
O=c1[nH]cnc(CC(CO)c2ccc(C#Cc3ccc(CN[C@H]4CCOC4)cc3)cc2)c1O (single isomer, unassigned) [Compound 9] | B (B: >1 μg/mL to ≤8.0 μg/mL)
O=c1[nH]cnc(CC(CO)c2ccc(C#Cc3ccc(CN[C@H]4CCOC4)cc3)cc2)c1O (single isomer, unassigned) [Compound 10] | A (A: ≤1 μg/mL)
O=C(CO)N1CC[C@@H](NCc2ccc(C#Cc3ccc(C(CO)Cc4nc[nH]c(=O)c4O)cc3)cc2)C1 (single isomer, unassigned) [Compound 45] | B (B: >1 μg/mL to ≤8.0 μg/mL)
O=C(CO)N1CC[C@@H](NCc2ccc(C#Cc3ccc(C(CO)Cc4nc[nH]c(=O)c4O)cc3)cc2)C1 (single isomer, unassigned) [Compound 46] | A (A: ≤1 μg/mL)
CO[C@@H]1CCN(Cc2ccc(C#Cc3ccc(C(CN[C@@H](C)CF)Cc4nc[nH]c(=O)c4O)cc3)cc2)C1 (single isomer, unassigned) [Compound 87] | B (B: >1 μg/mL to ≤8.0 μg/mL)
